Experimental data reported in patent US20110200662A1, “Method For The Treatment Of Proliferative Disorders Of The Eye” (priority 2008, published 2011).

What was measured:
[1] = test system: DNA repair response (RPA, γ-H2AX); details: non-proliferating cells; cited from earlier work
[2] = test system: cell proliferation; details: cited from earlier work
[3] = test system: approximately 60 different human cancer cell lines; experiment: NCI DTP Human Tumor Cell Line Screen (colorimetric assay, 48 hours); type: cell-based; details: average value across the cell lines, 48 hours incubation
Description: FIG. 1 summarizes the screening results obtained with forty different anticancer agents in the National Cancer Institute (NCI) DTP Human Tumor Cell Line Screen in which approximately 60 different human cancer cell lines were incubated for 48 hours with the anticancer drugs. […] For details on the assay, find on the wide world web at dtp.nci.nih.gov/branches/btb/ivclsp. FIG. 1 presents for each drug the average value across the cell lines of the TGI, the LC50, and the ratio of LC50 to TGI.
In a preferred embodiment the drug is bizelesin. Bizelesin has a number of unexpected properties that make it highly suited for treating proliferative disorders of the eye. The drug is an ultra-potent irreversible inhibitor of cell proliferation. As few as 1 to approximately 10 bizelesin-DNA crosslinks can inhibit cell proliferation. The small number of drug molecules per cell needed to inhibit clonogenic potential limits collateral damage to cellular processes in nonproliferating cells. […] There is a large difference between the bizelesin concentration that inhibits cell proliferation and the concentration that kills cells. This unexpected property is in sharp contrast to typical anticancer drugs as evidence by the data shown in FIG. 1, which summarizes screening results obtained with forty different anticancer agents in the National Cancer Institute (NCI) DTP Human Tumor Cell Line Screen. […]

[4] = test system: approximately 60 different human cancer cell lines; details: average value across the cell lines, 48 hours incubation; cited from earlier work
[5] = test system: HCT116 colon cancer cells; details: 250 times the GC50 concentration for 4 days; cited from earlier work
[6] = unless given intravascularly; cited from earlier work
[7] = test system: retinal neovascularization; experiment: Mouse model of ischemic proliferative retinopathy, intravitreal injection
Description: Intravitreal bizelesin was evaluated in the mouse model of ischemic proliferative retinopathy.
Bizelesin was dissolved in DMSO PharmaSolvent (Gaylord Chemical, Inc.) at 20 microgram/ml and filtered sterilized with a 0.2 micron Milliex-LG Millipore filter. […] The bizelesin solution was stored at −65 C or below. Immediately prior to administration the drug solution was thawed and diluted with sterile phosphate buffered saline (PBS).
In brief, for the ischemic proliferative retinopathy model, liters of C57BL/6 mice were exposed to 75% oxygen from P7 to P12 (P=age in days) and then returned to room air. On P12 the mice were anesthetized and given an intravitreal injection of 1 microliter of bizelesin solution or 1 microliter of control diluent. The dose of bizelesin ranged from 0.6 picogram to 0.6 nanograms. On the evening of P16 the mice were given an intravitreal injection of anti-mouse platelet endothelial cell adhesion molecule-1 (PECAM-1) antibody, which stain new blood vessels. On P17, the retinas were isolated, flat mounts prepared, and the area of neovascularization was determined with fluorescent microscopy and computerized image analysis.

[8] = test system: choroidal neovascularization; experiment: Laser induced mouse model of choroidal neovascularization, intravitreal injection; details: for inhibition of neovascularization in the area of the laser burn: single intravitreal dose of 0.6 ng, day 14
Description: Details of the model are provided in Xie, B. et al., “Blockade of Sphingosine-1-phosphate Reduces Macrophage Influx and Retinal and Choroidal Neovascularization,” J Cell Physiol, 218(1): 192-8 (January 2009 Bizelesin was formulated in PBS as described in Example 1. In brief, 5-6 week old C57BL/6 mice on day 0 were anesthetized and choroidal neovascularization was induced by laser photocoagulation-induced rupture of Bruch's membrane. The mice were then given an intravitreal injection of 1 microliter of control diluent in one eye and in the contralateral fellow eye 1 microliter of solution containing 6 ng to 0.006 ng of Bizelesin. Ten mice were employed per dose level. On day 14 the mice were perfused with fluorescein-labeled dextran, the retinas were isolated, flat mounts prepared, and the area of neovascularization was determined with fluorescent microscopy and computerized image analysis.

[9] = test system: cellular DNA; details: cited from earlier work
[10] = test system: retinal fibrosis; details: long-term follow-up; cited from earlier work

**Q.** What does the source list for `Cc1c[nH]c2c1[C@@]13C[C@@H]1CN(C(=O)c1cc4cc(NC(=O)c5cc6ccccc6o5)ccc4[nH]1)C3=CC2=O` [adozelesin]?
**A.** DNA repair response [1]: does not trigger A DNA repair response; GI50 (inhibition of cell proliferation) [2]: picomolar to sub-picomolar range

**Q.** What does the source list for `Cc1c[nH]c2c(O)cc3c(c12)[C@H](CCl)CN3C(=O)c1cc2cc(NC(=O)Nc3ccc4[nH]c(C(=O)N5C[C@@H](CCl)c6c5cc(O)c5[nH]cc(C)c65)cc4c3)ccc2[nH]1` [bizelesin]?
**A.** ratio of LC50 to TGI [3]: 480; TGI (drug concentration that completely inhibited cell growth) [4]: picomolar range; apoptosis [5]: did not cause apoptosis; GI50 (inhibition of cell proliferation) [2]: picomolar to sub-picomolar range; systemic bioavailability [6]: poor systemic bioavailability; clinical evidence of ocular toxicity ([7]; intravitreal 0.6 nanogram): without any clinical evidence of ocular toxicity; average area of neovascularization compared to diluent (p value) ([7]; single dose of 0.06 ng): highly statistically significant; average area of neovascularization compared to diluent (p value) ([7]; single dose of 0.6 ng): highly statistically significant; inhibition of proliferative retinopathy and neovascularization ([7]; single intravitreal injection of 0.6 nanogram on P12, read on P17): nearly complete inhibition; clinical evidence of ocular toxicity ([8]; intravitreal 6 ng to 0.006 ng): no clinical evidence of ocular toxicity; inhibition of neovascularization in the area of the laser burn [8]: nearly complete inhibition; inhibition of neovascularization in the area of the laser burn ([8]; listed as Bizelesin): dramatic inhibition

**Q.** With `N.N.[Cl][Pt][Cl]` [cisplatin] as the molecule, how does the “DNA adducts formed at concentrations that inhibit cell growth by 50%” value [9] read?
**A.** approximately 14,000

B1: ranibizumab (antibody, chains of the INN, looked up, V domains shown)
VH: EVQLVESGGGLVQPGGSLRLSCAASGYDFTHYGMNWVRQAPGKGLEWVGWINTYTGEPTYAADFKRRFTFSLDTSKSTAYLQMNSLRAEDTAVYYCAKYPYYYGTSHWYFDVWGQGTLVTVSS
VL: DIQLTQSPSSLSASVGDRVTITCSASQDISNYLNWYQQKPGKAPKVLIYFTSSLHSGVPSRFSGSGSGTDFTLTISSLQPEDFATYYCQQYSTVPWTFGQGTKVEIK
**Q.** Which “patients who developed retinal fibrosis” value [10] does the source give for B1 here?
**A.** 50%
